Among the data in ChEMBL document CHEMBL5038629, “Light-Triggered Fluorescence Self-Reporting Nitric Oxide Release from Coumarin Analogues for Accelerating Wound Healing and Synergistic Antimicrobial Applications” (J Med Chem, 2022) are inhibition and Activity values, retold here.

In general, inhibition refers to the percentage by which the read-out fell short of the control.

Structures are written as SMILES.

Test [1] relates to Staphylococcus aureus. The experiment in a line: Inhibition of biofilm formation in methicillin-resistant Staphylococcus aureus assessed as decrease in biofilm mass at 10 uM upon exposure to UV light irradiation and measured after 48 hrs by dilution plate coating method. The settings on record: light or radiation study. The format is functional.
Test [2] relates to Staphylococcus aureus. As to the kind of experiment: Inhibition of biofilm formation in methicillin-resistant Staphylococcus aureus assessed as biofilm dispersal effect at 10 uM incubated for 5 hrs followed by exposure to UV light irradiation for 1 min by crystal violet staining based analysis. The format is functional. Also noted: scale not given: the % may be the effect or the level left. The settings on record: time 301 min, 5.017 h.

Regarding `C[C@H]1COc2c(N3CCN(C)CC3)c(F)cc3c(=O)c(C(=O)O)cn1c23.C[C@H]1COc2c(N3CCN(C)CC3)c(F)cc3c(=O)c(C(=O)O)cn1c23.O` [LEVOFLOXACIN], the inhibition at 10 µM in the test on Staphylococcus aureus [1] stood at 19%. Further, in the test with Staphylococcus aureus [2], the Activity was 15%.
